Assay results from US5525523A, “Binding method for FK-506- and rapamycin-like drugs with a novel immunophilin” (Children's Research Institute, priority 1994, dated 1996).

Tests used:
[1] = system: FKBP-14.6; experiment: Competition binding against [^3 H]-dihydro FK-506 (LH-20 assay); parameters: species or system calf; settings: for Kd: 6 nM [^3 H]-dihydro FK-506, rapamycin 0.1 nM-1 μM, 0.2% Tween-20, 50% receptor occupation
Method: (§1) Binding of [^3 H]-dihydro FK-506 to protein fractions was assessed using the LH-20 assay as described by Handschumacher et al., Science, 226:544 (1984). Briefly, in a final volume of 250 μl, labeled FK-506 (2-5.35 nM in EtOH) and 2-5 μg protein (200 μl) were preliminarily incubated, and the competition reaction begun by the addition of varying concentrations of unlabeled FK-506 or rapamycin. Following 20 minutes at room temperature, a 200 μl aliquot of the reaction mixture was filtered through a 1.8 mL bed-volume Sephadex LH-20 column equilibrated with 20 mM Tris buffer, pH 7.2, containing 5 mM 2-mercaptoethanol and 0.05 % NAN3. Elution with five 250 μL portions of the assay buffer separated protein-bound [^3 H]-dihydro FK-506 from free labeled drug (Sjovall et al., in Giddlings et al., Advances in Chromatography, Marcel Dekker, Inc., N.Y., vol. 6, pp. 119-170 (1968)). Radioactivity in the 1.25 mL eluate was measured by liquid scintillation spectrometry (Optima Gold Scintillation cocktail, Packard Chemicals, Meriden, Conn.) operating at 59% efficiency. Non-specific binding was estimated by the addition of 1 μM unlabeled FK-506, which displaced ≥95% of the bound radioligand from binding sites.
To determine if rapamycin interacted with FK-506's binding site on FKBP-14.6, competition studies were carried out using 6 nM [^3 H]-dihydro FK-506 and 8 concentrations of rapamycin (0.1 nM-1 μM) in a buffer containing 0.2% Tween-20. Unlabeled FK-506 (1 μM) was used to define nonspecific binding.

[2] = target: FKBP-14.6; experiment: Saturation binding of [^3 H]-dihydro FK-506 (LH-20 assay, Scatchard and Hill plots); parameters: species or system calf; settings: for Kd: saturation, eight concentrations of labeled FK-506 (0.25-12 nM), read-out: Kd, single high affinity binding site
Method: as §1
To obtain binding site information for the FKBP-14.6 protein, Scatchard plots were obtained in saturation experiments using eight concentrations of labeled FK-506 (0.25-12 nM) in triplicate (FIG. 4A). In FIG. 4A, specific binding is shown by (-.cndot.-.cndot.-) and non-specific binding by (- - -). Data were analyzed with the EBDA and Ligand Corporation programs.

`CO[C@H]1C[C@@H]2CC[C@@H](C)[C@@](O)(O2)C(=O)C(=O)N2CCCC[C@H]2C(=O)O[C@H]([C@H](C)C[C@@H]2CC[C@@H](O)[C@H](OC)C2)CC(=O)[C@H](C)/C=C(\C)[C@@H](O)[C@@H](OC)C(=O)[C@H](C)C[C@H](C)/C=C/C=C/C=C/1C` [Rapamycin] was tested, and the “displacement of [^3 H]-dihydro FK-506 (manner)” value ([1]; 6 nM [^3 H]-dihydro FK-506, 8 concentrations of rapamycin) was “biphasic manner”, the Kd ([1]; read-out: Kd, high affinity binding site) was 0.023 nM and the Kd ([1]; read-out: Kd, low affinity binding site) was 226 nM.

Work on `CCC[C@@H]1/C=C(\C)C[C@H](C)C[C@H](OC)[C@H]2O[C@@](O)(C(=O)C(=O)N3CCCC[C@H]3C(=O)O[C@H](/C(C)=C/[C@@H]3CC[C@@H](O)[C@H](OC)C3)[C@H](C)[C@@H](O)CC1=O)[C@H](C)C[C@@H]2OC` [[^3 H]-dihydro FK-506] yielded a Kd ([2]; purified 14.6 kDa protein, listed as [^3 H]-FK-506) of ~1.77 nM and a Kd ([2]; purified 14.6 kDa protein) of 1.77 nM.

`[3H]CC([3H])C[C@@H]1/C=C(\C)C[C@H](C)C[C@H](OC)[C@H]2O[C@@](O)(C(=O)C(=O)N3CCCC[C@H]3C(=O)O[C@H](/C(C)=C/[C@@H]3CC[C@@H](O)[C@H](OC)C3)[C@H](C)[C@@H](O)CC1=O)[C@H](C)C[C@@H]2OC` (some centres unmarked) [[^3 H]-dihydro FK-506] was tested, and the Hill coefficients ([2]; saturation experiments, single class of binding sites) was “near unity”.

In the case of `C=CC[C@@H]1/C=C(\C)C[C@H](C)C[C@H](OC)[C@H]2O[C@@](O)(C(=O)C(=O)N3CCCC[C@H]3C(=O)O[C@H](/C(C)=C/[C@@H]3CC[C@@H](O)[C@H](OC)C3)[C@H](C)[C@@H](O)CC1=O)[C@H](C)C[C@@H]2OC` [FK-506], the “binding site Bmax” value ([2]; Scatchard analysis, purified 14.6 kDa protein) is reported as “about 67 nmoles/mg protein” and the “bound radioligand displaced from binding sites” value ([1]; 1 μM unlabeled FK-506, 20 min) is reported as ≥ 95%.
